# Data published in US20250319640A1, “ACTIVE AND/OR INTELLIGENT PACKAGING MATERIALS CONTAINING RADICAL SCAVENGING LIGANDS” (CORNELL UNIVERSITY, priority 2022, published 2025).
# Legend:
# E. coli = conditions: against E. coli, previous studies; cited from earlier work
# [1] = cited from earlier work
# [2] = system: E. coli ATCC strain no. 25922; experiment: Bacterial growth inhibition assay (modified JIS Z2801: 2000); assay type: cell-based
# Description: (§1) The Japanese Industrial Standard (JIS) Z2801: 2000 method was slightly modified to analyze antibacterial activity of treated films against food-borne pathogenic bacteria (Association JS., “Antimicrobial products: Test for Antimicrobial Activity and Efficacy,” Japanese Industrial Standard JIS Z 2801 (2000), which is hereby incorporated by reference its entirety). Briefly, a culture of E. coli ATCC strain no. 25922 and a culture of L. monocytogenes from a food isolate were stored in 20% glycerol at −80° C. until use. The L. monocytogenes strain was obtained from the Cornell Food Safety Laboratory Bacterial Strains Collection as FSL C1-0053 and originally isolated from a finished ready-to-eat dairy food product. The cultures were streaked on tryptic soy agar (TSA) and incubated at 37° C. for E. coli and 30° C. L. monocytogenes for 24 hours. An isolated colony from each plate was used to inoculate 12 mL of tryptic soy broth (TSB), which was incubated with shaking for 24 hours at 37° C. A 100 μL aliquot of each culture was used to inoculate 50 mL TSB, which was incubated with shaking for 24 hours at 37° C. to achieve a cell density of 10^9 CFU/mL, which was confirmed by plate count on TSA. Each culture was diluted to reach a starting concentration of 10^5 CFU/mL, also confirmed by plate count on TSA. Treated films were cut into 5×5 cm^2 squares and stored in sterile conditions after the ethanol wash described in the synthesis step. A 0.4 mL aliquot of each 10^5 CFU/mL culture was placed on the treated films and covered with a 4×4 cm^2 sterile PP film to create a sandwich. The PP cover was lightly pressed down with sterile tweezers to distribute the inoculum across the treated film and the sandwich was placed in a Petri dish. The Petri dish was placed in an airtight box containing paper towels saturated with 100 mL of filtered water to maintain a humid environment. The entire apparatus was incubated at 37° C. for 24 hours. After incubation, 10 mL of phosphate buffered saline (PBS, pH 7.4) solution was pipetted into each Petri dish and well mixed to disassemble the sandwich and dilute the inoculated broth. An aliquot was taken from each Petri dish and serially diluted with PBS buffer. A 100 μL aliquot of the appropriate dilution was plated in duplicate on TSA and incubated for 24 hours at 37° C. Plates with 30-300 CFU were counted, and the average plate count of the duplicate plates was recorded. Plate counts for treated films were subtracted from the average plate count of the control to determine inhibition of bacterial growth. The assay was performed on triplicate coupons from two independently extruded batches, totaling 6 replicates per treatment.
# (§2) To determine the antimicrobial performance of free curcumin, the assay was repeated with curcumin powder added to the starting inoculum. Curcumin powder was first completely dissolved in ethanol to prepare 2 mg/mL and 0.2 mg/mL stock solutions. Stock solutions were diluted 10× in TSB to final concentrations of 200 μg/mL and 20 μg/mL curcumin, which was then inoculated to a 10^5 CFU/mL starting concentration of either E. coli or L. monocytogenes, confirmed by plate count. The procedure was repeated by replacing the curcumin stock solutions with absolute ethanol (10% v/v in TSB) to quantify any growth inhibition due to ethanol. […]
# [3] = system: L. monocytogenes FSL C1-0053; experiment: as above; assay type: cell-based
# Description: as §1, §2
# [4] = printed as pH 7.8; cited from earlier work
smiles,measurement,setting,value
COc1cc(/C=C/C(=O)CC(=O)/C=C/c2ccc(O)c(OC)c2)ccc1O [curcumin],minimum inhibitory concentration (MIC),E. coli,100 to 200 µg/mL
same,water solubility,[1],low
same,antibacterial function of free curcumin,[2]; 20 μg/mL curcumin in TSB,did not display any antibacterial function
same,inhibition of bacterial growth compared to control,"[2]; 10^5 CFU/mL inoculum, 37° C., 24 hours",poor bacterial inhibition
same,antibacterial function of free curcumin,"[3]; 20 μg/mL curcumin in TSB, L. monocytogenes",did not display any antibacterial function
same,inhibition of L. monocytogenes by free curcumin,"[3]; 200 μg/mL curcumin, partially fell out of solution in TSB",1.63±0.83 log (CFU/mL)
same,inhibition of bacterial growth compared to control,"[3]; L. monocytogenes, 10^5 CFU/mL inoculum, 37° C., 24 hours",poor bacterial inhibition
same,pKa of the enolic hydrogen,[4],7.8
